Laboratory results reported in BigSolDB 2.1.

O.O=C1NC(=O)C(=O)C(=O)N1
solubility (mole fraction)
Conditions	293.15 K	298.15 K	303.15 K	308.15 K	313.15 K	318.15 K	323.15 K
in THF	0.046	0.0549	0.0638	0.0739	0.084	0.0954	0.107
in acetone	0.0128	0.0132	0.0136	0.014	0.0143	0.0146	0.015
in ethanol	0.0856	0.0962	0.107	0.119	0.131	0.143	0.155
in ethylene glycol	0.0113	0.0143	0.0172	0.0206	0.024	0.0283	0.0327
in methanol	0.105	0.117	0.129	0.142	0.155	0.168	0.181
in water	0.0377	0.0403	0.0429	0.0456	0.0482	0.051	0.0539
